Test results from US20080009418A1, “Selective Inhibitors” (Alchemia LTD., priority 2004, published 2008).

Assays:
Human δ-opioid (DOP) = molecular target: T1, Human δ-opioid (DOP) (Homo sapiens, UniProt P41143); assay: Radioligand binding, human δ-opioid (DOP) membranes, FlashPlate, [3H]-Bremazocine; conditions: compound at 10 μM; [3H]-Bremazocine
T1 construct: purchased Perkin Elmer Biosignal
Procedure: (§1) Cloned receptor membrane preparations from Perkin Elmer Biosignal™ were used in radioligand binding assays.
(§2) A1 Human δ-opioid (DOP), A2 Human κ-Opioid (KOP), A3 Human Melanocortin (MC3), A4 Human Melanocortin (MC4), A5 Human melanocortin (MC5), A6 Human melanin-concentrating hormone (MCH1), A7 Human μ-opioid (MOP), A8 Human neurokinin (NK1), A9 Human neuropeptide Y (NPY-Y1), A10 Human opioid (ORL1) A11 Mouse urotensin (mUR2)
(§3) Screening experiments were performed in either a 50 μl filtration or 25 μl FlashPlate assay format using the following protocol:
(§4) 19.5 μl buffer, 0.5 μl of compound diluted in DMSO, 5 μl of radioligand diluted in binding buffer.
(§5) The day prior to performing the experiment 50 μl DMSO was added to each well of the compound plates to yield compounds at a final concentration of 10 mM. Daughter plates were then created by diluting the compounds further in DMSO to a concentration of 0.5 mM. The mother plates were frozen immediately.
(§6) Immobilize membranes into FlashPlate microplates using PerkinElmer BioSignal's proprietary coating procedure. Dilute radioligand to 5× the final concentration in binding buffer. Add 19.5 μl buffer to each well of the FlashPlate. Add 0.5 μl of DMSO (total value, 5 wells), reference ligand (non-specific value, 3 wells) or compound to the corresponding wells in the FlashPlate microplate. Initiate the reaction by adding 5 μl of radioligand to each well. Apply TopSeal-A onto FlashPlate microplates. Incubate at room temperature for 1 hour in the dark. Count for 30 seconds per well on TopCount Microplate Scintillation and Luminescence Counter (PerkinElmer) using a count delay of 60 seconds.
(§7) Percentage inhibition was calculated using the following formula: [formula]

Human κ-Opioid (KOP) = molecular target: T2, Human κ-Opioid (KOP) (Homo sapiens, UniProt P41145); assay: Radioligand binding, human κ-opioid (KOP) membranes, filtration, [3H]-Diprenorphine; conditions: compound at 10 μM, [3H]-Diprenorphine
T2 construct: purchased Perkin Elmer Biosignal
Procedure: as §1, §2, §3
(§8) 44 μl membranes diluted in buffer, 1 μl of compound diluted in DMSO, 5 μl of radioligand diluted in binding buffer.
as §5
(§9) Thaw membranes on ice then dilute membranes in binding buffer at a concentration of 1 Unit per well. Dilute radio-ligand to 10 times the final concentration in binding buffer. Add 44 μl of diluted membranes to each well of the deep-well plate. Add 1 μl of DMSO (total value, 5 wells), reference ligand (non-specific value, 3 wells) or compound to the corresponding wells in the deep-well plate. Initiate the reaction by adding 5 μl of radioligand to each well and vortex gently. Incubate at room temperature for 1 hour. During incubation, pre-incubate the Multiscreen Harvest plates in 0.3% PEI. Filter over pre-soaked Multiscreen Harvest plates using a Tomtec Harvester. Wash 9 times with 500 μl of cold 50 mM Tris-HCl pH 7.4 at 4° C. and air-dry for 30 minutes at room temperature under a fume hood. Apply a bottom seal to the Multiscreen Harvest plates. Add 25 μl of MicroScint-0 to each well. Apply TopSeal-A to the plate. Count for 30 seconds per well on TopCount Microplate Scintillation and Luminescence Counter (PerkinElmer) using a count delay of 60 seconds.
as §7

Human Melanocortin (MC3) = molecular target: T3, Human Melanocortin (MC3) (Homo sapiens, UniProt P41968); assay: Radioligand binding, human melanocortin MC3 membranes, FlashPlate, [125I]-NDP-αMSH; conditions: compound at 10 μM, [125I]-NDP-αMSH
T3 construct: purchased Perkin Elmer Biosignal
Procedure: as §1, §2, §3, §4, §5, §6, §7

Human Melanocortin (MC4) = molecular target: T4, Human Melanocortin (MC4) (Homo sapiens, UniProt P32245); assay: Radioligand binding, human melanocortin MC4 membranes, FlashPlate, [125I]-NDP-αMSH; conditions: compound at 10 μM, [125I]-NDP-αMSH
T4 construct: purchased Perkin Elmer Biosignal
Procedure: as §1, §2, §3, §4, §5, §6, §7

Human melanocortin (MC5) = molecular target: T5, Human melanocortin (MC5) (Homo sapiens, UniProt P33032); assay: Radioligand binding, human melanocortin MC5 membranes, FlashPlate, [125I]-NDP-αMSH; conditions: compound at 10 μM, [125I]-NDP-αMSH
T5 construct: purchased Perkin Elmer Biosignal
Procedure: as §1, §2, §3, §4, §5, §6, §7

[1] = molecular target: T6, Human melanin-concentrating hormone (MCH1) (Homo sapiens, UniProt Q99705); assay: Radioligand binding, human melanin-concentrating hormone MCH1 membranes, FlashPlate, [125I]-S36057; conditions: compound at 10 μM, [125I]-S36057
T6 construct: purchased Perkin Elmer Biosignal
Procedure: as §1, §2, §3, §4, §5, §6, §7

Human μ-opioid (MOP) = molecular target: T7, Human μ-opioid (MOP) (Homo sapiens, UniProt P35372); assay: Radioligand binding, human μ-opioid (MOP) membranes, FlashPlate, [3H]-Naloxone; conditions: compound at 10 μM, [3H]-Naloxone
T7 construct: purchased Perkin Elmer Biosignal
Procedure: as §1, §2, §3, §4, §5, §6, §7

Human neurokinin (NK1) = molecular target: T8, Human neurokinin (NK1) (Homo sapiens, UniProt P25103); assay: Radioligand binding, human neurokinin NK1 membranes, filtration, [125I]-Substance P; conditions: compound at 10 μM; [125I]-Substance P
T8 construct: purchased Perkin Elmer Biosignal
Procedure: as §1, §2, §3, §8, §5, §9, §7

[2] = molecular target: T9, Human neuropeptide Y (NPY-Y1) (Homo sapiens, UniProt P25929); assay: Radioligand binding, human neuropeptide Y NPY-Y1 membranes, FlashPlate, [125I]-PYY; conditions: compound at 10 μM; [125I]-PYY
T9 construct: purchased Perkin Elmer Biosignal
T9 sequence (P25929 1-384): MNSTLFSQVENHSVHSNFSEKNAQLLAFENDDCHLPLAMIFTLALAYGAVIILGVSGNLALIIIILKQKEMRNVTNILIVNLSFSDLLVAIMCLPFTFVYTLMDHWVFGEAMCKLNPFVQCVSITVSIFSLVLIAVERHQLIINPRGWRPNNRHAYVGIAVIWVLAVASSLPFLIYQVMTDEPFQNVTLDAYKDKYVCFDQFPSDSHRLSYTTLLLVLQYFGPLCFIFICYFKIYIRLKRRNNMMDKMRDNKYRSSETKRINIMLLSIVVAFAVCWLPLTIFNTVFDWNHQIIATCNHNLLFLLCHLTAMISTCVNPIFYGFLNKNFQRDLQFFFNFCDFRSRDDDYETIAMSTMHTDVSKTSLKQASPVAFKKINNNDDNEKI
Procedure: as §1, §2, §3, §4, §5, §6, §7

Human opioid (ORL1) = molecular target: T10, Human opioid (ORL1) (Homo sapiens, UniProt P41146); assay: Radioligand binding, human opioid ORL1 membranes, FlashPlate, [125I]-Nociceptin; conditions: compound at 10 μM, [125I]-Nociceptin
T10 construct: purchased Perkin Elmer Biosignal
Procedure: as §1, §2, §3, §4, §5, §6, §7

Mouse urotensin (mUR2) = molecular target: T11, Mouse urotensin (mUR2) (Mus musculus, UniProt Q8VIH9); assay: Radioligand binding, mouse urotensin mUR2 membranes, FlashPlate, [125I]-Urotensin II; conditions: compound at 10 μM, [125I]-Urotensin II
T11 construct: purchased Perkin Elmer Biosignal
T11 sequence (Q8VIH9 1-385): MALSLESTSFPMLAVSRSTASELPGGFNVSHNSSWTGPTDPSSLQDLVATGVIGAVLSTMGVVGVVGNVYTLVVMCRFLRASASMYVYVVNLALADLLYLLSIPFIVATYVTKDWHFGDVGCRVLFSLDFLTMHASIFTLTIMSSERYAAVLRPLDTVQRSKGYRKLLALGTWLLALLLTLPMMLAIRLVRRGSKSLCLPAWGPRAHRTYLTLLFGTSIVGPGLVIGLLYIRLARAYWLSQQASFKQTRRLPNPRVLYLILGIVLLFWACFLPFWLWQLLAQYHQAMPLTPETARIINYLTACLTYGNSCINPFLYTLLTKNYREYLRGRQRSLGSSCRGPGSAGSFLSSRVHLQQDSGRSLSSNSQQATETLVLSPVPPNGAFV
Procedure: as §1, §2, §3, §4, §5, §6, §7

T3 sequence (P41968 whole entry): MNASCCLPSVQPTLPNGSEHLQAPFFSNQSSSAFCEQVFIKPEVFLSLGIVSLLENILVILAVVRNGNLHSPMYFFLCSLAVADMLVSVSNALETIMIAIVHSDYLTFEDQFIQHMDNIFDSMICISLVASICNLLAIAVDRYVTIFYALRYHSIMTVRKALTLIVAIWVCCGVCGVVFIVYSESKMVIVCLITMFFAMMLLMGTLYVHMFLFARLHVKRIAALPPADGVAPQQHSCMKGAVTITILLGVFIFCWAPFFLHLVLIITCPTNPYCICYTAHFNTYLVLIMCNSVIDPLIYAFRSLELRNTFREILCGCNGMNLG
T4 sequence (P32245 whole entry): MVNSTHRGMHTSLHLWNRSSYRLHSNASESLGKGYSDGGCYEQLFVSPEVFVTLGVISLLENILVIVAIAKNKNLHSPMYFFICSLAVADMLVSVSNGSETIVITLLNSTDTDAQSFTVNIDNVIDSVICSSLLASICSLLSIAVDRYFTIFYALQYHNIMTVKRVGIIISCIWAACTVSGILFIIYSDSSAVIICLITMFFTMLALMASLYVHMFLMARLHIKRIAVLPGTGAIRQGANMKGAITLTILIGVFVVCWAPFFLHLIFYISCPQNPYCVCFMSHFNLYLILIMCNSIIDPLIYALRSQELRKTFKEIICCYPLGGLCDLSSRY
T7 sequence (P35372 whole entry): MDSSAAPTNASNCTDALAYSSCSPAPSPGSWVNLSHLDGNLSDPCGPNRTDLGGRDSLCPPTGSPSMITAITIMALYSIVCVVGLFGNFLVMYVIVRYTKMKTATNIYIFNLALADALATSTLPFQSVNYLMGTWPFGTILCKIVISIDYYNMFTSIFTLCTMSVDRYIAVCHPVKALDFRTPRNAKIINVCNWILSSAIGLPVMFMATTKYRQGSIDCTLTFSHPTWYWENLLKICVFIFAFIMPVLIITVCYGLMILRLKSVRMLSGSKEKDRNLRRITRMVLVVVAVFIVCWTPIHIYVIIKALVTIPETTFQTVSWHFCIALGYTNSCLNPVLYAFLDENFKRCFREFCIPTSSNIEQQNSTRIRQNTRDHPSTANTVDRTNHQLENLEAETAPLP
T8 sequence (P25103 whole entry): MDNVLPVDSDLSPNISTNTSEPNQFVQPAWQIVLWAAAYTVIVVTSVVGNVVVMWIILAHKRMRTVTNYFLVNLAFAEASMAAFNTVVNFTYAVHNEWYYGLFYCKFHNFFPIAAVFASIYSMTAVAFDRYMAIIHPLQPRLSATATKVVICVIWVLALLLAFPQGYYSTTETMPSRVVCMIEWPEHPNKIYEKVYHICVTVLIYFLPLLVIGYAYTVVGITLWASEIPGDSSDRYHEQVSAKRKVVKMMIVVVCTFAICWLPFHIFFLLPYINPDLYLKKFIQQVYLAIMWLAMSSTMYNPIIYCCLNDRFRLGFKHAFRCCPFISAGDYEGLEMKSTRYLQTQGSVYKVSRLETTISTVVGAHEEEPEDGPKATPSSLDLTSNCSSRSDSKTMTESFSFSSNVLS
T5 sequence (P33032 whole entry): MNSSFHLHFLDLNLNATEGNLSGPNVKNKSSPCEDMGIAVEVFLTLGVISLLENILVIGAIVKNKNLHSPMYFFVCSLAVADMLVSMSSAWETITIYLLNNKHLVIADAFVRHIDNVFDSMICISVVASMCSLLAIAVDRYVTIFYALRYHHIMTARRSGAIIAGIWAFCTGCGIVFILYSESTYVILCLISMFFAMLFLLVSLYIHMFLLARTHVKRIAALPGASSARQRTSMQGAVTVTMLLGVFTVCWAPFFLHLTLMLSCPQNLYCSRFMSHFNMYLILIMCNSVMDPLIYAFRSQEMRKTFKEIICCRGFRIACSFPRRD
T1 sequence (P41143 whole entry): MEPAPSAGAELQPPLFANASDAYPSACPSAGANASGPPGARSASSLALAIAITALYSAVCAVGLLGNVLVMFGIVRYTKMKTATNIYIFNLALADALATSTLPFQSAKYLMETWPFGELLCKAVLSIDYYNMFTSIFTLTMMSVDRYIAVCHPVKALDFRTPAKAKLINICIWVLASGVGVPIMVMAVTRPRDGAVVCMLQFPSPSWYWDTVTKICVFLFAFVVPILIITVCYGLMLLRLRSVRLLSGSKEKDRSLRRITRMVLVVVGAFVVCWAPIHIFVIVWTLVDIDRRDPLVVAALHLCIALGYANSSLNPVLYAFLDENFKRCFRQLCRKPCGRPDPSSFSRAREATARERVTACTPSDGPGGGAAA
T10 sequence (P41146 whole entry): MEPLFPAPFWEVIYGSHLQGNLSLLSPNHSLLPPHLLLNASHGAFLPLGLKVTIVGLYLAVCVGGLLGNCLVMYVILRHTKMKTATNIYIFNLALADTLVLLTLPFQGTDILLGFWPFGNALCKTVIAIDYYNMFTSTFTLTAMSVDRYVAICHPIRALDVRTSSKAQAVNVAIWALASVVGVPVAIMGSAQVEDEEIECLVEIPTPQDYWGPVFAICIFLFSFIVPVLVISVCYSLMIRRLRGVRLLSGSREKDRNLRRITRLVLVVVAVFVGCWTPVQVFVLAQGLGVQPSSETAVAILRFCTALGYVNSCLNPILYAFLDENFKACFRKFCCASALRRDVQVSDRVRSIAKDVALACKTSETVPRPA
T2 sequence (P41145 whole entry): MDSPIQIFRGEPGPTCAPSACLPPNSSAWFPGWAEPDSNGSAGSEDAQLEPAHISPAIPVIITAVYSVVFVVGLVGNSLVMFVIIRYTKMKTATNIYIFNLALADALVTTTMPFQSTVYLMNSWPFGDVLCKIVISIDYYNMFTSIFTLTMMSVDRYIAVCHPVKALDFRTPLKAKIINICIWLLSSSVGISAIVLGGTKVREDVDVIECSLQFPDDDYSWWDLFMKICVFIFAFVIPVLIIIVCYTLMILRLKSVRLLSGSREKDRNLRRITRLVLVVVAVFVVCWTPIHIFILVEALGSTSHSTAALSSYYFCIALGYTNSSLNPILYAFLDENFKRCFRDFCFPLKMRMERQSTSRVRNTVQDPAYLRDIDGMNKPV
T6 sequence (Q99705 whole entry): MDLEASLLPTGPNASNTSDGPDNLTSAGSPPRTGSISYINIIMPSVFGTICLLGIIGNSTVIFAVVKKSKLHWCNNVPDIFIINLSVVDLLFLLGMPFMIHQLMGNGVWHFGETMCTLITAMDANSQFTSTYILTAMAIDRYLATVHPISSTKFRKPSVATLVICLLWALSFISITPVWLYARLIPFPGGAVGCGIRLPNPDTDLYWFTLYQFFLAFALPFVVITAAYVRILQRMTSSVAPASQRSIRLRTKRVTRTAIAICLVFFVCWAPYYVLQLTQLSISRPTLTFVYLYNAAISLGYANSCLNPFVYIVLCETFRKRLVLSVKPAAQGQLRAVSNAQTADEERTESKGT

Row | Compound | A1: inhibition of radioligand binding, human δ-opioid (DOP) (Human δ-opioid (DOP)) | A2: inhibition of radioligand binding, human κ-opioid (KOP) (Human κ-Opioid (KOP)) | A3: inhibition of radioligand binding, human melanocortin (MC3) (Human Melanocortin (MC3)) | A4: inhibition of radioligand binding, human melanocortin (MC4) (Human Melanocortin (MC4)) | A5: inhibition of radioligand binding, human melanocortin (MC5) (Human melanocortin (MC5)) | A6: inhibition of radioligand binding, human melanin-concentrating hormone (MCH1) [1] | A7: inhibition of radioligand binding, human μ-opioid (MOP) (Human μ-opioid (MOP)) | A8: inhibition of radioligand binding, human neurokinin (NK1) (Human neurokinin (NK1)) | A9: inhibition of radioligand binding, human neuropeptide Y (NPY-Y1) [2] | A10: inhibition of radioligand binding, human opioid (ORL1) (Human opioid (ORL1)) | A11: inhibition of radioligand binding, mouse urotensin (mUR2) (Mouse urotensin (mUR2)) | A2: inhibition of radioligand binding, human κ-opioid (KOP) (Human κ-Opioid (KOP); 10 µM) | A3: inhibition of radioligand binding, human melanocortin (MC3) (Human Melanocortin (MC3); 10 µM) | A4: inhibition of radioligand binding, human melanocortin (MC4) (Human Melanocortin (MC4); 10 µM) | A5: inhibition of radioligand binding, human melanocortin (MC5) (Human melanocortin (MC5); 10 µM) | A6: inhibition of radioligand binding, human melanin-concentrating hormone (MCH1) ([1]; 10 µM) | A7: inhibition of radioligand binding, human μ-opioid (MOP) (Human μ-opioid (MOP); 10 µM) | A10: inhibition of radioligand binding, human opioid (ORL1) (Human opioid (ORL1); 10 µM) | A11: inhibition of radioligand binding, mouse urotensin (mUR2) (Mouse urotensin (mUR2); 10 µM)
1 | COC[C@H]1OC(OCc2ccc(Cl)cc2)[C@H](NC(=O)CCCN)[C@@H](OCc2ccc3ccccc3c2)[C@@H]1O (single isomer, unassigned) [compound 344] | − (“−” indicates less than 50% inhibition at 10 μM) | − (“−” indicates less than 50% inhibition at 10 μM) | − (“−” indicates less than 50% inhibition at 10 μM) | − (“−” indicates less than 50% inhibition at 10 μM) | − (“−” indicates less than 50% inhibition at 10 μM) | − (“−” indicates less than 50% inhibition at 10 μM) | − (“−” indicates less than 50% inhibition at 10 μM) | + (“+” indicates greater than 50% inhibition at 10 μM) | − (“−” indicates less than 50% inhibition at 10 μM) | − (“−” indicates less than 50% inhibition at 10 μM) | − (“−” indicates less than 50% inhibition at 10 μM) |  |  |  |  |  |  |  | 
2 | COC[C@H]1OC(OCCc2ccccc2)[C@H](NC(=O)CCCN)[C@@H](OCc2ccc3ccccc3c2)[C@@H]1O (single isomer, unassigned) [compound 345] | − (“−” indicates less than 50% inhibition at 10 μM) |  |  |  |  |  |  | + (“+” indicates greater than 50% inhibition at 10 μM) | − (“−” indicates less than 50% inhibition at 10 μM) |  |  | − (“−” indicates less than 50% inhibition at 10 μM) | − (“−” indicates less than 50% inhibition at 10 μM) | − (“−” indicates less than 50% inhibition at 10 μM) | − (“−” indicates less than 50% inhibition at 10 μM) | − (“−” indicates less than 50% inhibition at 10 μM) | − (“−” indicates less than 50% inhibition at 10 μM) | − (“−” indicates less than 50% inhibition at 10 μM) | − (“−” indicates less than 50% inhibition at 10 μM)
3 | COC[C@H]1OC(OCCc2ccccc2)[C@H](NC(=O)CCCN)[C@@H](OCc2ccc3ccccc3c2)[C@@H]1O (single isomer, unassigned) [compound 346] | − (“−” indicates less than 50% inhibition at 10 μM) |  |  |  |  |  |  | + (“+” indicates greater than 50% inhibition at 10 μM) | − (“−” indicates less than 50% inhibition at 10 μM) |  |  | + (“+” indicates greater than 50% inhibition at 10 μM) | + (“+” indicates greater than 50% inhibition at 10 μM) | + (“+” indicates greater than 50% inhibition at 10 μM) | + (“+” indicates greater than 50% inhibition at 10 μM) | + (“+” indicates greater than 50% inhibition at 10 μM) | + (“+” indicates greater than 50% inhibition at 10 μM) | + (“+” indicates greater than 50% inhibition at 10 μM) | + (“+” indicates greater than 50% inhibition at 10 μM)
